For 11 molecules, IC50 results are on record in patent US20240299386A1, “Novel imidazole derivatives having protein kinase inhibitory activity and uses thereof” (INDUSTRY-UNIVERSITY COOPERATION FOUNDATION HANYANG …, priority 2021, published 2024).

In the assay the target is JNK3 (Homo sapiens, UniProt P53779). Put plainly: Measurement of JNK3 enzyme activity. Type of assay: biochemical. The source says: Experimental Example 1. Measurement of JNK3 Enzyme Activity
Chain of JNK3 (P53779 whole entry, species assumed): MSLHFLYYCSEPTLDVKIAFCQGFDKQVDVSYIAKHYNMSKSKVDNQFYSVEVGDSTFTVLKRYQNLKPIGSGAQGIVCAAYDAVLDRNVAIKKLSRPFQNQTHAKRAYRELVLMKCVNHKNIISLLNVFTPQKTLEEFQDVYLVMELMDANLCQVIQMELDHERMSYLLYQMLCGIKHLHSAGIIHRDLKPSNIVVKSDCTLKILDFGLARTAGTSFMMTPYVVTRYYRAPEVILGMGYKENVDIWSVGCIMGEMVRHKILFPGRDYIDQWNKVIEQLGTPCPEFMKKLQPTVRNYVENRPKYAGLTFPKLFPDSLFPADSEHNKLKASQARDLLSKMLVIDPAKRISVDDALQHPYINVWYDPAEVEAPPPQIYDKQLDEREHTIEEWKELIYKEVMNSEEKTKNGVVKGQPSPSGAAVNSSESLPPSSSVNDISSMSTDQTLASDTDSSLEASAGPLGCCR

For orientation: IC50 means the point on the concentration scale where inhibition reaches its midpoint. Consider `CNC(=O)C1Cc2nc(-c3ccc(F)c(C(F)(F)F)c3)n(-c3ccnc(N[C@@H]4CCN(C(=O)C5CC5)C4)n3)c2C1` (stereo partly drawn) [Compound 25a, 1-(2-(((R)-1-(cyclopropanecarbonyl)pyrrolidine-3-yl)amino)pyrimidin-4-yl)-2-(4-fluoro-3-(trifluoromethyl)phenyl)-N-methyl-1,4,5,6-tetracyclopenta[d]imidazol-5-carboxamide], for which the IC50 (Table 1) is more than 1000 nM.
Still for that read-out and setting: the result for `CCOC(=O)C1Cc2nc(-c3ccc(F)c(C(F)(F)F)c3)n(-c3ccnc(N[C@@H]4CCN(C(=O)C5CC5)C4)n3)c2C1` (stereo partly drawn) [Compound 17a, ethyl 1-(2-(((R)-1-(cyclopropanecarbonyl)pyrrolidine-3-yl)amino)pyrimidin-4-yl)-2-(4-fluoro-3-(trifluoromethyl)phenyl)-1,4,5,6-tetracyclopenta[d]imidazol-5-carboxylate] reads less than 30 nM.
Under “Table 5”, `NC(=O)C1Cc2nc(-c3ccc4c(c3)CCO4)n(-c3ccnc(N[C@@H]4CCN(C(=O)C5CC5)C4)n3)c2C1` (stereo partly drawn) [Compound 21e, 1-(2-(((R)-1-(cyclopropanecarbonyl)pyrrolidine-3-yl)amino)pyrimidin-4-yl)-2-(2,3-dihydrobenzofuran-5-yl)-1,4,5,6-tetracyclopenta[d]imidazol-5-carboxamide] came in with an IC50 of less than 30 nM.
Still for that read-out and setting: as for `CNC(=O)C1Cc2nc(-c3ccc4c(c3)CCO4)n(-c3ccnc(N[C@H]4CCCN(C(=O)C5CC5)C4)n3)c2C1` (stereo partly drawn) [Compound 26e, 1-(2-(((S)-1-(cyclopropanecarbonyl)piperidin-3-yl)amino)pyrimidin-4-yl)-2-(2,3-dihydrobenzofuran-5-yl)-N-methyl-1,4,5,6-tetracyclopenta[d]imidazol-5-carboxamide], the figure is more than 1000 nM.
Take `CNC(=O)C1Cc2nc(-c3ccc4ccccc4c3)n(-c3ccnc(N[C@H]4CCCN(C(=O)C5CC5)C4)n3)c2C1` (stereo partly drawn) [Compound 26c, 1-(2-(((S)-1-(cyclopropanecarbonyl)piperidin-3-yl)amino)pyrimidin-4-yl)-2-(naphthalen-2-yl)-N-methyl-1,4,5,6-tetracyclopenta[d]imidazol-5-carboxamide]: the IC50 (Table 3) was less than 30 nM.
Same read-out and setting: the result for `CNC(=O)C1Cc2nc(-c3ccc(F)c(-c4ccc5ccccc5c4)c3)n(-c3ccnc(N[C@@H]4CCCN(C(=O)C5CC5)C4)n3)c2C1` (some centres unmarked) [Compound 27c] reads less than 30 nM.
As for `CCOC(=O)C1Cc2nc(-c3ccc(F)c(C(F)(F)F)c3)n(-c3ccnc(N[C@H]4CCN(C(=O)C5CC5)C4)n3)c2C1` (stereo partly drawn) [Compound 16a, ethyl 1-(2-(((S)-1-(cyclopropanecarbonyl)pyrrolidine-3-yl)amino)pyrimidin-4-yl)-2-(4-fluoro-3-(trifluoromethyl)phenyl)-1,4,5,6-tetracyclopenta[d]imidazol-5-carboxylate], the half-inhibitory concentration (IC50) (Table 1) was more than 1000 nM.
For the setting “Table 1”, `NC(=O)C1Cc2nc(-c3ccc(F)c(C(F)(F)F)c3)n(-c3ccnc(NC4CCCN(C(=O)C5CC5)C4)n3)c2C1` (single isomer, unassigned) [Compound 22a] showed an IC50 of less than 30 nM.
`NC(=O)C1Cc2nc(-c3ccc4c(c3)OCO4)n(-c3ccnc(N[C@@H]4CCN(C(=O)C5CC5)C4)n3)c2C1` (stereo partly drawn) [Compound 21d, 2-(benzo[d][1,3]dioxol-5-yl)-1-(2-(((R)-1-(cyclopropanecarbonyl)pyrrolidine-3-yl)amino)pyrimidin-4-yl)-1,4,5,6-tetracyclopenta[d]imidazol-5-carboxamide]: for the setting “Table 4”, the IC50 was more than 1000 nM.
`CCOC(=O)C1Cc2nc(-c3ccc4ccccc4c3)n(-c3ccnc(N[C@H]4CCCN(C(=O)C5CC5)C4)n3)c2C1` (stereo partly drawn) [Compound 18c, ethyl 1-(2-(((S)-1-(cyclopropanecarbonyl)piperidin-3-yl)amino)pyrimidin-4-yl)-2-(naphthalen-2-yl)-1,4,5,6-tetracyclopenta[d]imidazol-5-carboxylate] registered an IC50 (Table 3) of less than 30 nM.
`NC(=O)C1Cc2nc(-c3ccc(F)c(C(F)(F)F)c3)n(-c3ccnc(NC4CCCN(C(=O)C5CC5)C4)n3)c2C1` (single isomer, unassigned) [Compound 23a] had an IC50 (Table 1) of more than 1000 nM.
